What all share (type): cell-based
Assay [1] has as its target T1, cholera toxin subunit B (CTB) (Vibrio cholerae serotype O1, UniProt P01556). Nature of the assay: cell-based.
Assay [2] addresses T1, cholera toxin subunit B (CTB).
Assay [3] concerns the target Sambucus nigra lectin (SNA) (Sambucus nigra, UniProt Q41358).
For assay [4], the target named is T2, Maackia amurensis lectin I (MAL I) (Maackia amurensis, UniProt P0DKL3).
T2 sequence (P0DKL3 30-287): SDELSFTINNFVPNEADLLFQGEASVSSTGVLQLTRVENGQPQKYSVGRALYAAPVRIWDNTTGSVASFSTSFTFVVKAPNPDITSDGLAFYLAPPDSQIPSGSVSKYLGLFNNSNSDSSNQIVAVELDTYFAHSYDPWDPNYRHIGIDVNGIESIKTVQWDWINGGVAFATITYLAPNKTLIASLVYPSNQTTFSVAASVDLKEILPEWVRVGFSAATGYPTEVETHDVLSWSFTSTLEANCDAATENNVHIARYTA

Each structure is given as a SMILES string. Structures can show the parent of a compound that is named as a salt.

T1 sequence (P01556 22-124 limits assumed): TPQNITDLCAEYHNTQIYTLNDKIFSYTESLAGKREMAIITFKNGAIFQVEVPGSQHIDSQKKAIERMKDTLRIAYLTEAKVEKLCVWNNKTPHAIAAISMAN
Sequence of Sambucus nigra lectin (SNA) (Q41358 309-570 limits assumed): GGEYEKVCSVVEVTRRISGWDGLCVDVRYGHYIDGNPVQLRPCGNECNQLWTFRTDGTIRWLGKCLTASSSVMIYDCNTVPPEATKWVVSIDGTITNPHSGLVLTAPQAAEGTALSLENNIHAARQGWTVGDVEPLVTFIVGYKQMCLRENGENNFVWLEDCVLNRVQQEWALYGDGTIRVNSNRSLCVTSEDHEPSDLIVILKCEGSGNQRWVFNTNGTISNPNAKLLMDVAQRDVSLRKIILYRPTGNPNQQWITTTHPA
Sequence of Sambucus nigra lectin (SNA) (Q41358 29-292 partner limits assumed): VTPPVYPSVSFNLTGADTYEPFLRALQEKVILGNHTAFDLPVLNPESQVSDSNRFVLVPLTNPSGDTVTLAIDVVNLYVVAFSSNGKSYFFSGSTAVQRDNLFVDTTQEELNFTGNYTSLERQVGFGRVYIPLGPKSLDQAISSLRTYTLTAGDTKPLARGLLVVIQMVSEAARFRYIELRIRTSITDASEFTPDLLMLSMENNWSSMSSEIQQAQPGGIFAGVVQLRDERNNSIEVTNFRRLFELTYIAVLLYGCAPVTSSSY

On to `CC(=O)N[C@H]1[C@H]([C@H](O)[C@H](O)CO)O[C@@](OC[C@H]2O[C@@H](O[C@H]3[C@H](O)[C@@H](O)[C@H](O)O[C@@H]3CO)[C@H](O)[C@@H](O)[C@H]2O)(C(=O)O)C[C@@H]1O` [6′-SL, 6′-Sialyllactose sodium salt], for which the “Inhibition of CTB binding to Colo205 cells (in words)” value in assay [1] is listed as “no inhibition”. For the same molecule, the “Inhibition of CTB binding to T84 cells (in words)” value in assay [2] is “no inhibition”. For the same molecule, the “Inhibition of SNA binding (in words)” value in assay [3] was “enhance the inhibitory potential of lactose”.

Take `CC(=O)N[C@H]1[C@H]([C@H](O)[C@H](O)CO)O[C@@](O[C@H]2[C@@H](O)[C@@H](CO)O[C@@H](O[C@H]3[C@H](O)[C@@H](O)C(O)O[C@@H]3CO)[C@@H]2O)(C(=O)O)C[C@@H]1O` (stereo partly drawn) [3′-SL, 3′-Sialyllactose sodium salt]: the “Inhibition of CTB binding to Colo205 cells (in words)” value in assay [1] was “no inhibition”. Besides, the “Inhibition of CTB binding to T84 cells (in words)” value in assay [2] is “no inhibition”. In addition, in assay [4], the “Inhibition of MAL I binding (in words)” value is given as “enhance the inhibitory potential of lactose”.

(Values after paper PMC5948155 (ACS infectious diseases, 2018).)
